Source: patent US12478643B2, “Compositions and methods for the prevention or treatment of rheumatoid arthritis” (Rhode Island Hospital, priority 2021, dated 2025)

Legend:
mice = settings: as seen in SHIP-1 KO mice; cited from earlier work
SHIP-1 = settings: temporal inhibition of SHIP-1; cited from earlier work
[1] = test system: xenograft model of multiple myeloma; settings: cited from earlier work
SHIP1 = biological target: T1, SHIP1 (Homo sapiens, UniProt Q92835); settings: read-out: IC50 SHIP-1; cited from earlier work
T1 sequence (Q92835 1-1189): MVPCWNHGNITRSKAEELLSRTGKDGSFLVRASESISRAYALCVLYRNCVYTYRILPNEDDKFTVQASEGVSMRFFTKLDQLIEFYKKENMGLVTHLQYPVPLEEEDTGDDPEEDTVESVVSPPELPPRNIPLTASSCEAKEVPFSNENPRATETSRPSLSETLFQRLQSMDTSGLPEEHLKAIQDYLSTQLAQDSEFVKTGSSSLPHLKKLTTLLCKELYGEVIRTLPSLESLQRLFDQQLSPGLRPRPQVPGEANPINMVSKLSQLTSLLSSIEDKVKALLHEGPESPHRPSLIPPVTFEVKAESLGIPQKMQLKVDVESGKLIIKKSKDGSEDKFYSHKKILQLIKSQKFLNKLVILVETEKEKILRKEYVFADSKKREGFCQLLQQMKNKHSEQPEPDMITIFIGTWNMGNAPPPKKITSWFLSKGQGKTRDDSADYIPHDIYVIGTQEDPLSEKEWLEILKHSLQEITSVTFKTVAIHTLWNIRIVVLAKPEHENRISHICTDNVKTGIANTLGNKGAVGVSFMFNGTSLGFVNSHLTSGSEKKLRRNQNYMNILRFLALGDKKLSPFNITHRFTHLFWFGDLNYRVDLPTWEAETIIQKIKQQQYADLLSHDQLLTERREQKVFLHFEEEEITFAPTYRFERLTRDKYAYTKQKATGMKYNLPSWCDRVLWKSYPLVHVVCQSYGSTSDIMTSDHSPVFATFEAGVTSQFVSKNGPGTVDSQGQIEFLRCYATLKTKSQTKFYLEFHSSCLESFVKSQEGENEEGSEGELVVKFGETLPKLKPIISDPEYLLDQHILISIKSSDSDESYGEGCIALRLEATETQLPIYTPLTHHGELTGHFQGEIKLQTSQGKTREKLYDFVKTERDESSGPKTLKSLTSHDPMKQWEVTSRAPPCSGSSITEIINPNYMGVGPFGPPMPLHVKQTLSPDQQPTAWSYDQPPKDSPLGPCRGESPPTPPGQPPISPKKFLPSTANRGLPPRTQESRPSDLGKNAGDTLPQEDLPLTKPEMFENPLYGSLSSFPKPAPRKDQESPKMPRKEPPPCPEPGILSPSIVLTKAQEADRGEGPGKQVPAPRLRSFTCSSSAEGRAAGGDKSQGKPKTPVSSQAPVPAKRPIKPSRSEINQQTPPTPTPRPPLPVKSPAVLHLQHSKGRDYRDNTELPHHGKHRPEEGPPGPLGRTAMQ

[2] = test system: collagen-induced arthritis (CIA) in DBA/1 mice; assay: Collagen-induced arthritis (CIA) prevention model, 3AC pre-treatment; type: in vivo, mouse
[3] = test system: collagen-induced arthritis (CIA) in DBA/1 mice; assay: Collagen-induced arthritis (CIA) intervention model, 3AC after second immunization; type: in vivo, mouse
DBA/1 mice = assay: 3AC i.p. daily for 7 days in DBA/1 mice: Western blot and flow cytometry; type: in vivo, mouse
Excerpt: Mice. All animals were maintained in pathogen-free conditions and all animal procedures followed protocols approved by the Institutional Animal Care and Use Committee (IACUC) of Rhode Island Hospital. The SHIP-1 knockout (KO) mice (Inpp5d<tm1Dmt>/J, Stock #003534) on a mixed genetic background (129/C57BL/6) were purchased from the Jackson Laboratory, Bar Harbor, ME, and backcrossed with C57BL/6 mice (Stock #000664, the Jackson Laboratory) for 5 generations. Heterozygous (SHIP-1^+/−) mice were intercrossed to obtain homozygous progeny (SHIP-1^−/−). Wild-type (WT) littermates (SHIP-1^+/+) of same age as SHIP1 KO mice were used as controls. DBA/1J mice (Stock #000670) were also purchased from the Jackson Laboratory.
Chemicals and reagents. Specific SHIP-1 inhibitor 3AC was purchased from Echelon Biosciences (Salt Lake, UT) and suspended in 0.3% Klucel (Sigma-Aldrich, St. Louis, MO) solution. The 3AC suspension was stirred by sonication and sterile filtered before injection. The 0.3% Klucel solution was used as a vehicle control.
Immunoblotting. Splenocytes were isolated from C57BL/6 WT and SHIP1 KO mice, and DBA/1 mice with or without 3AC treatment. The cells were then lysed with RIPA buffer containing Halt™ Protease and Phosphatase Inhibitor Cocktail (Thermo Scientific, Rockford, IL). Total lysates (30 μg/sample) were loaded on an SDS-PAGE gel and transferred onto an Immuno-Blot PVDF membrane (Bio-Rad, Hercules, CA). The membranes were first blocked and then probed with antibodies in TBS (20 mM Tris and 150 mM NaCl) containing 0.1% Tween-20 and 5% skim milk. Antibodies against SHIP-1 (P1C1) (sc-8425) and β-Actin (2A3) were purchased from Santa Cruz Biotechnology (Dallas, TX). Blots were developed by using a goat anti-mouse IgG antibody conjugated IRDye 800CW and imaged with an Odyssey imager (LI-COR, Lincoln, NE).
Flow cytometry analysis. Peripheral blood (PB) samples were collected from the retro-orbital sinus of mice on the indicated days. Bone marrow (BM) of femurs and tibiae and spleens were isolated from sacrificed mice. Following treatment with red blood cell lysing buffer (Sigma-Aldrich) and filtration through a nylon mesh, peripheral blood mononuclear cells (PBMCs), splenocytes, and whole BM cells were isolated and suspended in phosphate-buffered saline (PBS) containing 2% FBS. These cells were labeled with fluorophore-conjugated antibodies and subjected to flow cytometry. All antibodies used in flow cytometry were purchased from BioLegend (San Diego, CA): Alexa Fluor 488 anti-mouse CD11b, APC anti-mouse Gr-1, PE anti-mouse CD3e, APC/Cy7 anti-mouse B220, Alexa Flour 488 anti-mouse CD4, and APC anti-mouse CD25. 4′,6-Diamidino-2-Phenylindole (DAPI) was used to exclude DAPI+ dead cells during flow cytometry analysis. Data were acquired using LSR II flow cytometer (BD Biosciences) and analyzed with FlowJo software (FlowJo, Ashland, OR).
Statistical analysis. Data are shown as the mean values±standard error of the mean (SEM). The significance of difference was calculated with unpaired two-tailed Student's t-test or one-way ANOVA when comparing more than 2 groups by using GraphPad Prism (GraphPad Software, Inc., La Jolla, CA). P values less than 0.05 were considered to be statistically significant.

[4] = test system: hematopoietic cancer cells; settings: in vitro; cited from earlier work
[5] = test system: CIA in C57BL/6 WT and SHIP1 KO mice; assay: CIA in C57BL/6 WT and SHIP1 KO mice; type: in vivo, mouse
[6] = test system: wild-type (WT) C57BL/6 mice; settings: cited from earlier work
[7] = 3AC daily for 7 days prior to CIA induction, vs vehicle
[8] = 3AC daily for 7 days starting on day 27
[9] = i.p. daily for 7 days, DBA/1 mice

## CC(C)CCC[C@@H](C)[C@H]1CC[C@H]2[C@@H]3CC[C@H]4C[C@H](N)CC[C@]4(C)[C@H]3CC[C@]12C [Compound 3AC, 3α-Aminocholestane]
mice
  pulmonary myeloid infiltration: did not cause
SHIP-1
  SHIP-1 protein stability in cells: reduces protein stability and induces protein degradation
[1]
  inflammation of peripheral tissues: without association with severe inflammation of peripheral tissues
  tumor cell growth: reduces tumor cell growth
SHIP1
  IC50: ~2500 nM
[2]; [7]
  CIA onset: significant delay
  severity of CIA (clinical score): significant reduction
[2]; X-ray at day 63
  misalignment, bone erosion and destruction of joint cartilage (radiographic assessment): nearly absent
[2]; after first immunization, 3AC pre-treated DBA/1 mice
  time at which swelling and redness of limbs started to appear: 30 to 40 days
[2]; day 42
  swollen and reddish front paws (photographic assessment): much less so
[2]; following 3AC injection
  Tregs in the spleen: higher number
[2]; till day 21, transient
  CD3+ T cells in peripheral blood: decreased
  MDSCs in peripheral blood: significantly increased
[2]; wrist joint of front paws
  bone erosion (Toluidine Blue): reduced bone erosion
  cartilage damage (Safranin O): reduced cartilage damage
  inflammatory cell infiltration in the arthritic joint (H&E): reduced inflammatory cell infiltration
[3]; [8]
  CIA incidence: significantly reduced
  CIA severity (clinical score): significantly reduced
[3]; day 34
  number of total T cell in peripheral blood: Significantly and transiently decreasing
[3]; mouse, in vivo
  number of Tregs in peripheral blood: unchanged
[3]; onset and endpoint of the experiment, vs control
  number of Tregs in the spleen: Comparable number
[3]; vs vehicle-treated mice, day 34
  number of MDSCs in peripheral blood: Significantly but transiently increasing
DBA/1 mice; [9]
  CD3+ T cells in PB: significant reduction
  CD11b+Gr-1+ MDSCs in BM: increase
  CD11b+Gr-1+ MDSCs in peripheral blood (PB): increase
  CD11b+Gr-1+ MDSCs in spleen (SP): increase
  SHIP-1 protein depletion in splenocytes (Western blot): comparable to that in SHIP1 KO mice
DBA/1 mice; vs vehicle control mice
  Tregs in SP: significantly elevated level
DBA/1 mice; vs vehicle treated control mice
  frequency of CD4+CD25+ Tregs in PB: remained unchanged
[4]
  apoptosis of hematopoietic cancer cells: increases apoptosis
[5]; SHIP1 KO mice treated with 3AC (data not shown)
  incidence and severity of CIA in SHIP1 KO mice: did not improve
[5]; WT mice with 3AC pre-treatment
  CIA development in C57BL/6 WT mice: did not develop CIA
[6]; WT C57BL/6 mice
  myeloid immunoregulatory cell compartment: significantly expand
[6]; mouse models
  ability of the immune system to prime allogeneic T cell responses: impairs
